Source: US20260335398A1, “METHODS FOR TREATING PANCREATIC CANCER WITH A COMBINATION OF DES-METHYL PATEAMINE A AND A CLASS I HDAC INHIBITOR” (Baylor University, priority 2023, published 2026)

How the values were obtained:
MIA PaCa-2 cells [1] = assay: Metabolic flux analysis, basal mitochondrial respiration (OCR) (FIG. 8C left); format: cell-based; details: MIA PaCa-2, total 18 h
Method: FIG. 8C left panel presents the results of metabolic flux analysis showing basal mitochondrial respiration (OXPHOS) (oxygen consumption rate, OCR) in MIA PaCa-2 cells following treatment with combinations or single drugs. Treatment was for a total of 18 h, as mentioned in FIG. 8A. Statistical significance was determined by one-way ANOVA, ***p value<0.001, *p value<0.01. FIG. 8C right panel presents the results of quantification of glutamine consumption. Cells were treated as mentioned in FIG. 8A. Prior to the metabolic measurements cells were starved of glucose, glutamine, and pyruvate for 1-hour after which glutamine was added and response was recorded as ΔOCR (i.e. OCR before and after glutamine addition). Statistical significance was determined by one-way ANOVA, ****p value<0.0001, ***p value<0.0005.
(§1) Because reprograming/augmentation of cellular metabolism by c-MYC is known to support oncogenesis, the Seahorse XF analyzer was used to assess the impact of the treatments on c-MYC-driven metabolism including ATP production, glycolysis, and mitochondrial oxidative phosphorylation (OXPHOS). Extracellular acidification rates, also known as proton efflux rate (PER), were measured for glycolysis and mitochondrial oxygen consumption rates (OCR) for OXPHOS. We utilized the 6 h exposure followed by 18 h washout strategy for romidepsin described earlier. […]

MIA PaCa-2 and KLM cells = assay: Replication fork dynamics; format: cell-based; details: 24 hours
Text: Having observed R-loop accumulation following treatment with the combination, it was hypothesized that hypertranscription, persistent hyperacetylation, and R-loop accumulation could increase the incidence of transcription replication conflicts, genome instability, and DNA damage and contribute to cell death. In response to DNA damage, replication protein A2 (RPA2) is phosphorylated at multiple sites by different protein kinases, including ATM, ATR, and DNA-PK, while the serine threonine-protein kinase, Chk1 (checkpoint kinase 1), is phosphorylated and activated by ATR. […] Drug treatments were for 24 hours (i.e., romidepsin treatment in combination or single agent romidepsin was 6 hours followed by 18-hour incubation with 2 nM DMPatA or with fresh medium respectively).

[2] = patients, 4-hour infusion; cited from earlier work
MIA PaCa-2 cells [3] = assay: Seahorse XF Real-Time ATP Rate Assay (FIG. 8A); format: cell-based; details: 6 h romidepsin then 12 h washout with or without 2 nM DMPatA
Method: FIG. 8A compares quantification of ATP production rates. Seahorse XF Real-Time ATP Rate Assay was performed under control conditions or after treatment with the combination and single agents. Treatment was for a total of 18 h (i.e., 6-hour romidepsin followed by 12-hour washout with 2 nM DMPatA (combo) or without (Romi alone)). FIG. 8A left panel—ATP production rate from mitochondrial respiration (Mito-ATP); FIG. 8A right panel—ATP production rate from glycolysis (Glyco-ATP). At least two biological replicate experiments with n=3 technical replicates were performed. Statistical significance was determined by one-way ANOVA using Tukey multiple comparison's test in the Prism software. *p value<0.01.
as §1, with “OXPHOS.” for “OXPHOS. We utilized the 6 h exposure followed by 18 h washout strategy for romidepsin described earlier.”
Oxygen consumption rates (OCR) and extracellular acidification rates (ECAR) were measured using the XF96 Extracellular Flux analyzer (Seahorse Bioscience). […]

For C/C=C1\NC(=O)[C@H]2CSSCC/C=C/[C@H](CC(=O)N[C@H](C(C)C)C(=O)N2)OC(=O)[C@H](C(C)C)NC1=O [romidepsin], the “mitochondrial function (OCR)” value (MIA PaCa-2 cells [1]) is listed as “impaired mitochondrial function”, the replication fork speed (MIA PaCa-2 and KLM cells) is listed as “significant reduction” and the half-life [2] is listed as “approximately 3.5 hour”. The “glycolytic ATP production (Glyco-ATP)” value (MIA PaCa-2 cells [3]) was “reduced” and the “mitochondrial ATP production (Mito-ATP)” value (MIA PaCa-2 cells [3]) was “reduced”.
